According to patent publication US8946266B2, “Substituted triazole and imidazole derivatives as gamma secretase modulators” (Janssen Pharmaceuticals, Inc., priority 2009, dated 2015):
Structures can show the parent of a compound that is named as a salt. Where two headings read alike, the source gives them in different places.

Columns and labels:
Aβtotal [1] = assay: γ-secretase-modulating activity, Method 2: Aβtotal Alphalisa in supernatant of SKNBE2 cells carrying APP 695-wild type (Table 3b); type: cell-based; conditions: overnight, read-out: IC50 Aβtot
Summary of the method: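 Secreted Aβtotal was quantified by AlphaLISA pairing an N-terminal antibody (JRF/AβN/25) with biotinylated mid-region 4G8. Wild-type APP 695 SKNBE2 cells received serially varied compound overnight at 37 °C; IC50 came from a 4-parameter nonlinear regression of percent of control against log dose.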

Aβ42 [2] = assay: γ-secretase-modulating activity, Method 2: Aβ42 Alphalisa in supernatant of SKNBE2 cells carrying APP 695-wild type (Table 3b); type: cell-based; conditions: overnight
Summary of the method: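 Aβ42 in the supernatant was quantified by AlphaLISA sandwich (JRF/cAβ42/26 with JRF/AβN/25). Cells were wild-type APP695 SKNBE2, exposed to compound overnight at 37° C., 5% CO2. Data were normalised to untreated maximum and fitted with a four-parameter curve to give IC50.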

Aβtotal [3] = assay: In vivo efficacy, Method 2: brain soluble Aβtotal lowering 4 h after a single oral dose, ELISA (Table 4b); design: species or system mouse; conditions: dose 30 mg/kg oral dosing
From the text: (§1) To determine whether acute administration of an Aβ42 lowering agent would reduce Aβ42 levels in vivo, non-transgenic rodents, e.g. mice or rats were used. Animals treated with the Aβ42 lowering agent were examined and compared to those untreated or treated with vehicle and brain levels of soluble Aβ42 and total Aβ were quantitated by standard techniques, for example, using ELISA. Treatment periods varied from hours (h) to days and were adjusted based on the results of the Aβ42 lowering once a time course of onset of effect could be established.
(§2) A typical protocol for measuring Aβ42 lowering in vivo is shown but it is only one of many variations that could be used to optimize the levels of detectable Aβ. For example, Aβ42 lowering compounds were formulated in 20% of Captisol® (a sulfobutyl ether of β-cyclodextrin) in water or 20% hydroxypropyl β cyclodextrin. The Aβ42 lowering agents were administered as a single oral dose or by any acceptable route of administration to overnight fasted animals. After 4 h, the animals were sacrificed and Aβ42 levels were analysed.
(§3) Blood was collected by decapitation and exsanguinations in EDTA-treated collection tubes. Blood was centrifuged at 1900 g for 10 minutes (min) at 4° C. and the plasma recovered and flash frozen for later analysis. The brain was removed from the cranium and hindbrain. The cerebellum was removed and the left and right hemisphere were separated. The left hemisphere was stored at −18° C. for quantitative analysis of test compound levels. The right hemisphere was rinsed with phosphate-buffered saline (PBS) buffer and immediately frozen on dry ice and stored at −80° C. until homogenization for biochemical assays.
(§4) Mouse brains from non-transgenic animals were resuspended in 8 volumes of 0.4% DEA (diethylamine)/50 mM NaCl containing protease inhibitors (Roche-11873580001 or 04693159001) per gram of tissue, e.g. for 0.158 g brain, add 1.264 ml of 0.4% DEA. All samples were homogenized in the FastPrep-24 system (MP Biomedicals) using lysing matrix D (MPBio #6913-100) at 6 m/s for 20 seconds. Homogenates were centrifuged at 221.300×g for 50 min. The resulting high speed supernatants were then transferred to fresh eppendorf tubes. Nine parts of supernatant were neutralized with 1 part 0.5 M Tris-HCl pH 6.8 and used to quantify Aβtotal and Aβ42.
(§5) To quantify the amount of Aβtotal and Aβ42 in the soluble fraction of the brain homogenates, Enzyme-Linked-Immunosorbent-Assays were used. Briefly, the standards (a dilution of synthetic Aβ1-40 and Aβ1-42, Bachem) were prepared in 1.5 ml Eppendorf tube in Ultraculture, with final concentrations ranging from 10000 to 0.3 pg/ml. The samples and standards were co-incubated with HRPO-labelled N-terminal antibody for Aβ42 detection and with the biotinylated mid-domain antibody 4G8 for Aβtotal detection. 50 μl of conjugate/sample or conjugate/standards mixtures were then added to the antibody-coated plate (the capture antibodies selectively recognize the C-terminal end of Aβ42, antibody JRF/cAβ42/26, for Aβ42 detection and the N-terminus of Aβ, antibody JRF/rAβ/2, for Aβtotal detection). The plate was allowed to incubate overnight at 4° C. in order to allow formation of the antibody-amyloid complex. Following this incubation and subsequent wash steps the ELISA for Aβ42 quantification was finished by addition of Quanta Blu fluorogenic peroxidase substrate according to the manufacturer's instructions (Pierce Corp., Rockford, Ill.). A reading was performed after 10 to 15 min (excitation 320/emission 420).
For Aβtotal detection, a Streptavidine-Peroxidase-Conjugate was added, followed 60 min later by an additional wash step and addition of Quanta Blu fluorogenic peroxidase substrate according to the manufacturer's instructions (Pierce Corp., Rockford, Ill.). A reading was performed after 10 to 15 min (excitation 320 nm/emission 420 nm).
(§6) The results are shown in Table 4b (dose 30 mg/kg oral dosing): […]

Aβ42 [4] = assay: In vivo efficacy, Method 2: brain soluble Aβ42 lowering 4 h after a single oral dose, ELISA (Table 4b); design: species or system mouse; conditions: dose 30 mg/kg oral dosing
From the text: as §1, §2, §3, §4, §5
In this model at least 20% Aβ42 lowering compared to untreated animals would be advantageous.
as §6

| Structure (SMILES) | melting point [°C] | IC50 (Aβtotal [1]; Homo sapiens) [nM] | IC50 (Aβ42 [2]; Homo sapiens) [nM] | IC50 (Aβtotal [1]) [nM] | IC50 (Aβ42 [2]) [nM] | Aβtotal (% Ctrl) _Mean (Aβtotal [3]) [% Ctrl] | Aβ42 (% Ctrl) _Mean (Aβ42 [4]) [% Ctrl] |
| --- | --- | --- | --- | --- | --- | --- | --- |
| COc1cc(-c2nc(Sc3cccc(C(F)(F)F)c3)n(C)n2)ccc1-n1cnc(C)c1 (as salt: HCl) (hydrate or solvate) [Compound 249] | 78.4 |  |  |  |  |  |  |
| COc1cc(-c2nc(-c3cc(F)c(F)c(F)c3)n(C(C)C)n2)ccc1-n1cnc(C)c1 [Compound 84] | 122.23 | > 10000 | 316 |  |  |  |  |
| COc1cc(-c2nc3n(n2)CCCN3c2ccccc2C(F)(F)F)ccc1-n1cnc(C)c1 [Compound 18] | 211.6 | > 10000 | 76 |  |  |  |  |
| COc1cc(-c2nc3c(-c4ccccc4C(F)(F)F)nccn3n2)ccc1-n1cnc(C)c1 [Compound 294] | 176.9 | > 10000 | 537 |  |  |  |  |
| COc1cc(-c2nc(-c3ccccc3Cl)n(C(C)C)n2)ccc1-n1cnc(C)c1 [Compound 66] | 159 | > 10000 | 562 |  |  |  |  |
| COc1cc(-c2nc3nccc(-c4ccccc4C(F)(F)F)n3n2)ccc1-n1cnc(C)c1 [Compound 290] | 191 | > 10000 | 224 |  |  |  |  |
| COc1cc(-c2nc3cncc(-c4ccc(F)cc4C)n3n2)ccc1-n1cnc(C)c1 [Compound 295] | 210.7 | > 10000 | 537 |  |  |  |  |
| COc1cc(-c2nc3n(n2)CCCC3c2ccc(F)cc2C)ccc1-n1cnc(C)c1 (stereo not shown) [Compound 258] | 241.8 | > 10000 | 62 |  |  |  |  |
| COc1cc(-c2nc3n(n2)CCN(C)C3c2ccccc2C(F)(F)F)ccc1-n1cnc(C)c1 (stereo not shown) [Compound 275] | 154.26 | > 10000 | 269 |  |  |  |  |
| COc1cc(-c2nc(-c3ccc(-n4cnc(C)c4)c(OC)c3)n[nH]2)ccc1Cl [Compound 20] | 262.6 | > 10000 | 257 |  |  |  |  |
| COc1nc(-c2nc(N3CCCC(c4ccccc4)C3)n(C(C)C)n2)ccc1-n1cnc(C)c1.Cl (racemic) [Compound 80] |  |  |  | 10000 | 56 | −19 | −20 |
| COc1cc(-c2nc(Nc3cc(C(C)(C)C)nn3C)n(C)n2)ccc1-n1cnc(C)c1 [Compound 244] |  |  |  | > 10000 | 83 | 5 | 7 |
| COc1nc(-c2nc(N(C)c3cc(C(F)(F)F)ccc3F)n(C)n2)ccc1-n1cnc(C)c1 [Compound 337] |  |  |  | > 10000 | 263 | 3 | 30 |
| COc1nc(-c2nc3n(n2)CCCC3c2cc(C(F)(F)F)ccc2C)ccc1-n1cnc(C)c1 (stereo not shown) [Compound 343] |  |  |  | > 10000 | 15 | 18 | 64 |
| COc1cc(-c2nc3n(n2)CCCC3c2cc(C(F)(F)F)ccc2C)ccc1-n1cnc(C)c1 (stereo not shown) [Compound 264] |  |  |  | > 10000 | 15 | 8 | 49 |
| COc1cc(-c2nc3n(n2)CCC[C@H]3c2ccccc2Cl)ccc1-n1cnc(C)c1 [Compound 255] |  |  |  | 9330 | 32 | 11 | 21 |
| COc1nc(-c2nc(Nc3ccc(F)cc3C(F)(F)F)n(C)n2)ccc1-n1cnc(C)c1 [Compound 158] |  |  |  | > 10000 | 40 | 3 | 44 |

Further lines, with some results ahead:

| melting point [°C] | IC50 (Aβtotal [1]; Homo sapiens) [nM] | IC50 (Aβ42 [2]; Homo sapiens) [nM] | IC50 (Aβtotal [1]) [nM] | IC50 (Aβ42 [2]) [nM] | Structure (SMILES) | Aβtotal (% Ctrl) _Mean (Aβtotal [3]) [% Ctrl] | Aβ42 (% Ctrl) _Mean (Aβ42 [4]) [% Ctrl] |
| --- | --- | --- | --- | --- | --- | --- | --- |
| 240 | > 10000 | 575 |  |  | COc1cc(-c2nc(Nc3cccc(C(F)(F)F)n3)n(C)n2)ccc1-n1cnc(C)c1 [Compound 236] |  |  |
| 232.1 | > 10000 | 76 |  |  | COc1cc(-c2nc3n(n2)CCOC3c2cc(OC(F)(F)F)ccc2F)ccc1-n1cnc(C)c1 (stereo not shown) [Compound 281] |  |  |
| 235.2 | > 10000 | 158 |  |  | COc1ccc(CO)c(Nc2nc(-c3ccc(-n4cnc(C)c4)c(OC)c3)nn2C)c1 [Compound 200] |  |  |
| 230.1 | > 10000 | 17 |  |  | COc1nc(-c2nc(Nc3cc(C(F)(F)F)ccc3F)n(C)n2)ccc1-n1cnc(C)c1 [Compound 154] |  |  |
|  |  |  | > 10000 | 56 | COc1cc(-c2nc(Nc3cccc(F)c3Cl)n(C)n2)ccc1-n1cnc(C)c1 [Compound 114] | 9 | 53 |
|  |  |  | > 10000 | 23 | COc1cc(-c2nc(Nc3cccc(C(F)(F)F)c3F)n(C)n2)ccc1-n1cnc(C)c1 [Compound 148] | 12 | 37 |
|  |  |  | > 10000 | 13 | COc1cc(-c2nc(Nc3cc(C(F)(F)F)cc(C(F)(F)F)c3)n(C)n2)ccc1-n1cnc(C)c1 [Compound 150] | −8 | −6 |
|  |  |  | 68 | 603 | COc1cc(-c2nc(Nc3cc([S+](C)[O-])ccc3F)n(C)n2)ccc1-n1cnc(C)c1 (racemic) [Compound 330] | −2 | −9 |
|  |  |  | > 10000 | 13 | COc1cc(-c2nc(Nc3cc(C)ccc3C)n(C)n2)ccc1-n1cnc(C)c1 [Compound 198] | 6 | 55 |
|  |  |  | > 10000 | 170 | COc1cc(-c2nc(Nc3c(F)cccc3OC)n(C)n2)ccc1-n1cnc(C)c1 [Compound 214] | 0 | −15 |
|  |  |  | > 10000 | 45 | COc1c(-n2cnc(C)c2)ccc(-c2nc(Nc3cc(C(F)(F)F)ccc3F)n(C)n2)c1F [Compound 320] | 8 | 23 |
|  |  |  | > 10000 | 17 | COc1cc(-c2nc(Nc3cc(OC(F)(F)F)ccc3F)n(C)n2)ccc1-n1cnc(C)c1 [Compound 185] | 9 | 40 |
|  |  |  | > 10000 | 22 | COc1cc(-c2nc(Nc3cc(N(C)C)ccc3F)n(C)n2)ccc1-n1cnc(C)c1 [Compound 180] | 10 | 51 |
|  |  |  | 3020 | 76 | COc1cc(-c2nc(Nc3cc(C(F)(F)F)ccc3F)n(CC(C)(C)O)n2)ccc1-n1cnc(C)c1 [Compound 136] | 1 | −14 |
|  |  |  | > 10000 | 10 | COc1cc(-c2nc(Nc3cc(C(F)(F)F)ccc3Cl)n(C)n2)ccc1-n1cnc(C)c1 [Compound 177] | 11 | 51 |
